Data published in patent US20260176289A1, “SMALL MOLECULE INHIBITORS OF KRAS PROTEINS” (Merck Sharp & Dohme LLC, priority 2022, published 2026).

Tests used:
SW620 cells = assay: Cellular phospho-ERK assay, SW620 cells (homozygous KRAS-G12V); format: cell-based; conditions: Homo sapiens, SW-620, KRAS-G12V, 2 hours, read-out: SW620 pERK IC50
Summary of the method: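 Inhibition of ERK phosphorylation was determined after treating attached cells with compound for 2 h; top concentration 30 μM, serial 1:3 dilution. Each well's p-ERK:total ERK ratio, read by SureFire Ultra, was fitted with a four-parameter model for IC50.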

KRAS-G12D = KRAS-G12D (Homo sapiens, UniProt P01116, G12D); assay: SOS-catalyzed nucleotide exchange assay (Procedure A, TR-FRET), KRAS-G12D; format: biochemical; conditions: nucleotide exchange, read-out: KRAS G12D GNE IC50
Sequence of KRAS-G12D (P01116 with tags, fused parts or gaps isoform P01116-2 G12D): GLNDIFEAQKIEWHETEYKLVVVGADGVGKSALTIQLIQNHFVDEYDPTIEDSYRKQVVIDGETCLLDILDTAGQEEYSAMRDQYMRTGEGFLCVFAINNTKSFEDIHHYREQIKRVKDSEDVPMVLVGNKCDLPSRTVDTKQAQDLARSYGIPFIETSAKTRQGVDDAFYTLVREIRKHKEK
Summary of the method: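 Signal ratio (520/495 nm, excitation 340 nm) reports Bodipy-GDP retention on biotinylated RAS after SOS-catalyzed exchange with 3 mM GTP. SOS was 40 nM, except 160 nM for G12V. Room-temperature exchange lasted 60 min (90 min for G12V), following a 60 min compound preincubation.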

KRAS-WT = KRAS-WT (Homo sapiens, UniProt P01116); assay: SOS-catalyzed nucleotide exchange assay (Procedure A, TR-FRET), KRAS-WT; format: biochemical; conditions: nucleotide exchange, read-out: KRAS WT GNE IC50
Sequence of KRAS-WT (P01116 with tags, fused parts or gaps isoform P01116-2): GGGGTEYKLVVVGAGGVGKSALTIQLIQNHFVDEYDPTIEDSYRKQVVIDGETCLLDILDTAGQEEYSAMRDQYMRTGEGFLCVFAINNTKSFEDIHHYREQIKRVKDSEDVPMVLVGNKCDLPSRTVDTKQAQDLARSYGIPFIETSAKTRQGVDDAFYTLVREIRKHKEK
Summary of the method: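 TR-FRET 520/495 nm ratio read after SOS-driven exchange of Bodipy-GDP for unlabeled GTP (3 mM) on biotinylated RAS bound to Tb-streptavidin. There was a 60 min compound preincubation, RT. Final RAS/SOS and reaction times: G12C 3 nM/40 nM; WT 1 nM/40 nM; NRAS 1.25 nM/40 nM, each 60 min. G12V was 1.25 nM/160 nM, 90 min.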

Structure (SMILES): C#Cc1c(F)ccc2cc(O)cc(-c3nccc4c5c(N6CCOC[C@@](C)(O)C6)nc(OC[C@@]67CCCN6C[C@H](F)C7)nc5n(C)c34)c12 [Ex-18, (S)-4-(8-(8-ethynyl-7-fluoro-3-hydroxynaphthalen-1-yl)-2-(((2R,7aS)-2-fluorotetrahydro-1H-pyrrolizin-7a(5H)-yl)methoxy)-9-methyl-9H-pyrido[4′,3′:4,5]pyrrolo[2,3-d]pyrimidin-4-yl)-6-methyl-1,4-oxazepan-6-ol]
- IC50 (SW620 cells): 13.1 nM
- IC50 (KRAS-G12D): 1.15 nM
- IC50 (KRAS-WT): 1.46 nM
